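Tested at 5 concentrations; 48 h exposure; 96-well plates; endpoints linearly interpolated, else capped at highest concentration. Here, GI50 denotes the concentration required for 50% inhibition of growth.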 The source made the active and inactive calls. Cut-off read from the data, not from the text of the source: active = GI50 up to about 1.1 µM and inactive = higher.
How the values were obtained:
Assay in all cases: growth of human tumour cells (NCI), 48 h
KM-20L2 = test system: KM-20L2
MDA-MB-435 = test system: MDA-MB-435
MOLT-4 = test system: MOLT-4
MDA-N = test system: MDA-N
SNB-75 = test system: SNB-75
UACC-257 = test system: UACC-257
HOP-62 = test system: HOP-62
RXF 631 = test system: RXF 631
SK-MEL-2 = test system: SK-MEL-2
A549 = test system: A549
MDA-MB-231 = test system: MDA-MB-231
K562 = test system: K562
BT-549 = test system: BT-549
OVCAR-3 = test system: OVCAR-3
Malme-3M = test system: Malme-3M
HCT-116 = test system: HCT-116
SF-268 = test system: SF-268
DMS-114 = test system: DMS-114
OVCAR-4 = test system: OVCAR-4
SN12C = test system: SN12C
PC-3 = test system: PC-3
HCT-15 = test system: HCT-15
DMS-273 = test system: DMS-273
DU-145 = test system: DU-145
EKVX = test system: EKVX
SK-MEL-28 = test system: SK-MEL-28
M19-MEL = test system: M19-MEL
SF-539 = test system: SF-539
NCI/ADR-RES = test system: NCI/ADR-RES
SK-OV-3 = test system: SK-OV-3
HCC 2998 = test system: HCC 2998
NCI-H522 = test system: NCI-H522
HL-60 = test system: HL-60
HOP-92 = test system: HOP-92
DLD-1 = test system: DLD-1
SW-620 = test system: SW-620
RPMI-8226 = test system: RPMI-8226
UO-31 = test system: UO-31
KM12 = test system: KM12
SNB-19 = test system: SNB-19
COLO 205 = test system: COLO 205
T47D = test system: T47D
786-0 = test system: 786-0
SK-MEL-5 = test system: SK-MEL-5
RXF 393 = test system: RXF 393
LXFL 529 = test system: LXFL 529
M14 = test system: M14
NCI-H460 = test system: NCI-H460
OVCAR-8 = test system: OVCAR-8
LOX IMVI = test system: LOX IMVI
HT-29 = test system: HT-29
MCF7 = test system: MCF7
Hs-578T = test system: Hs-578T
NCI-H226 = test system: NCI-H226
CCRF-CEM = test system: CCRF-CEM
XF498 = test system: XF498
SF-295 = test system: SF-295
A498 = test system: A498
SNB-78 = test system: SNB-78
NCI-H23 = test system: NCI-H23
U-251 = test system: U-251
SR = test system: SR
TK-10 = test system: TK-10
UACC-62 = test system: UACC-62
OVCAR-5 = test system: OVCAR-5
IGROV-1 = test system: IGROV-1
ACHN = test system: ACHN
CAKI-1 = test system: CAKI-1

CC(=O)[C@@]1(O)CC[C@H]2[C@@H]3C[C@H](C)C4=CC(=O)C=C[C@]4(C)[C@@]3(F)[C@@H](O)C[C@@]21C [FLUOROMETHOLONE]
GI50 (KM-20L2): > 100 µM (inactive) | GI50 (MDA-MB-435): > 100 µM (inactive) | GI50 (MOLT-4): > 100 µM (inactive) | GI50 (MDA-N): > 100 µM (inactive) | GI50 (SNB-75): 69.5 µM (inactive) | GI50 (UACC-257): > 100 µM (inactive) | GI50 (HOP-62): > 100 µM (inactive) | GI50 (RXF 631): > 100 µM (inactive) | GI50 (SK-MEL-2): > 100 µM (inactive) | GI50 (A549): > 100 µM (inactive) | GI50 (MDA-MB-231): > 91 µM (inactive) | GI50 (K562): > 100 µM (inactive) | GI50 (BT-549): > 100 µM (inactive) | GI50 (OVCAR-3): > 100 µM (inactive) | GI50 (Malme-3M): > 100 µM (inactive) | GI50 (HCT-116): > 100 µM (inactive) | GI50 (SF-268): > 95.1 µM (inactive) | GI50 (DMS-114): > 100 µM (inactive) | GI50 (OVCAR-4): > 100 µM (inactive) | GI50 (SN12C): > 100 µM (inactive) | GI50 (PC-3): > 59.3 µM (inactive) | GI50 (HCT-15): > 100 µM | GI50 (DMS-273): > 100 µM (inactive) | GI50 (DU-145): > 51.4 µM (inactive) | GI50 (EKVX): > 67.5 µM (inactive) | GI50 (SK-MEL-28): > 100 µM (inactive) | GI50 (M19-MEL): > 100 µM (inactive) | GI50 (SF-539): > 87.3 µM (inactive) | GI50 (NCI/ADR-RES): > 100 µM (inactive) | GI50 (SK-OV-3): > 100 µM (inactive) | GI50 (HCC 2998): > 100 µM (inactive) | GI50 (NCI-H522): > 93.3 µM (inactive) | GI50 (HL-60): > 100 µM (inactive) | GI50 (HOP-92): > 100 µM (inactive) | GI50 (DLD-1): > 100 µM (inactive) | GI50 (SW-620): > 100 µM (inactive) | GI50 (RPMI-8226): > 14.6 µM (inactive) | GI50 (UO-31): > 100 µM (inactive) | GI50 (KM12): > 100 µM (inactive) | GI50 (SNB-19): > 100 µM (inactive) | GI50 (COLO 205): > 100 µM (inactive) | GI50 (T47D): > 69.8 µM (inactive) | GI50 (786-0): > 100 µM (inactive) | GI50 (SK-MEL-5): > 100 µM (inactive) | GI50 (RXF 393): > 91.4 µM (inactive) | GI50 (LXFL 529): > 100 µM (inactive) | GI50 (M14): > 100 µM (inactive) | GI50 (NCI-H460): > 100 µM (inactive) | GI50 (OVCAR-8): > 69.7 µM (inactive) | GI50 (LOX IMVI): > 100 µM (inactive) | GI50 (HT-29): > 100 µM (inactive) | GI50 (MCF7): > 100 µM (inactive) | GI50 (Hs-578T): > 100 µM (inactive) | GI50 (NCI-H226): > 11.3 µM (inactive) | GI50 (CCRF-CEM): 1.8 µM (inactive) | GI50 (XF498): > 53.5 µM (inactive) | GI50 (SF-295): > 100 µM (inactive) | GI50 (A498): > 100 µM (inactive) | GI50 (SNB-78): > 100 µM (inactive) | GI50 (NCI-H23): > 100 µM (inactive) | GI50 (U-251): > 100 µM (inactive) | GI50 (SR): > 100 µM (inactive) | GI50 (TK-10): > 100 µM (inactive) | GI50 (UACC-62): > 100 µM (inactive) | GI50 (OVCAR-5): > 38.5 µM (inactive) | GI50 (IGROV-1): > 100 µM (inactive) | GI50 (ACHN): > 100 µM (inactive) | GI50 (CAKI-1): > 100 µM (inactive)
